Experimental data as given in patent publication US12486245B2, “Sequential multi-step flash nanoprecipitation for the formation of nanoparticles with high core loadings” (The Trustees of Princeton University, priority 2019, dated 2025).

Experiment: Water solubility
Assay type: physicochemical

For `CCCCOc1ccc(OCCCC)c2c1-c1nc3nc(nc4[nH]c([nH]c5nc(nc-2n1)-c1c(OCCCC)ccc(OCCCC)c1-5)c1c(OCCCC)ccc(OCCCC)c41)-c1c(OCCCC)ccc(OCCCC)c1-3` [762Pc, 1,4,8,11,15,18,22,25-Octabutoxy-29H,31H-phthalocyanine], the water solubility was “negligible”.
